In patent EP4417190A1, “CYCLIC PEPTIDES WITH ANTI-AGING EFFICACY” (Lipotrue, S.L., priority 2023, dated 2024):

Legend:
[1] = MTT assay, toxicity on HDFa cells; assay type: cell-based; details: human, normalized to non-treated cells, read-out: Cell viability
Procedure: (§1) Toxicity of cycled peptides A and B was analyzed on human dermal fibroblasts (HDFa) and adult human epidermal keratinocytes HEKa cells by MTT assay. A stock solution of the peptide was prepared in distilled water at 25 mg/mL. This stock solution was further diluted to obtain the final working concentrations (0.001, 0.005, 0.01, 0.05, 0.1 and 0.5 mg/mL) in the corresponding culture medium. Untreated cells were used as negative control samples (Basal).
(§2) Briefly, HEKa and HDFa cells were seeded in 96-well plates at a concentration of 1×10^5 cells/mL in a final volume of 200 µL of medium (20,000 cells/well). HEKa cells were incubated in Dermal Cell Basal Medium supplemented with the Keratinocytes Growth Kit; and HDFa cells were cultured in Medium 106 supplemented with 2% of LSGS. Cells were incubated at 37°C, 5% CO2 and saturated humidity.
(§3) After 24 h of incubation, cells were treated with different concentrations of each peptide (0.001, 0.005, 0.01, 0.05, 0.1 and 0.5 mg/mL) in triplicates, for MTT evaluation. After 24 h of treatment with the peptide, medium was completely removed, and 100 µL of 0.5 mg/mL MTT solution in supplemented medium were added to each well and cells were incubated at 37°C for 3 h. After incubating with MTT, the medium of each well was aspirated and 150 µL of DMSO were added in order to solubilise the formazan crystals formed. The plates were placed on a shaker for 5 minutes for complete solubilisation of the crystals and then the absorbance at 570 nm of each well was determined, using the microplate reader Multiskan FC, which is directly proportional to the number of living cells in culture.
(§4) Absorbance values were normalized using the data obtained for non-treated cells (control), obtaining the % of viability shown in Tables 1 and 2. Each condition was performed in triplicate (n=3) in 3 independent experiments (N=3).
(§5) Concentrations of peptide for which viability is above 80% are considered safe for efficacy testing. On the contrary, concentrations for which viability goes below 80% are considered potentially toxic and are not used for efficacy testing purposes. Table 1: Toxicity of cycled peptides on HDFa cells.

[2] = MTT assay, toxicity on HEKa cells; assay type: cell-based; details: human, normalized to non-treated cells, read-out: Cell viability
Procedure: as §1, §2, §3, §4, §5

FN = assay: RT-qPCR expression of aging-related gene FN in HEKa; assay type: cell-based, human; details: 0.01 mg/mL, 24 h
Procedure: Then, cells were lysed, and RNA was extracted (RNeasy mini kit, Qiagen). Purified RNAs were retro-transcribed (High-capacity cDNA reverse transcription kit, Applied Biosystems). RT-qPCR was performed with the panel of TaqMan assay probes (Thermo Fisher Scientific) using StepOne plus Real time PCR instrument. […] The obtained data were analyzed using the ΔΔCt method, which provides the target gene expression values as fold changes in the treated sample compared with an untreated basal sample. Both samples were normalized with the relative expression of the housekeeping gene GAPDH.

[3] = system: COL3A1, COL5A1, COL6A1, COL7A1, COL1A1 and COL4A1; assay: qPCR expression of collagen genes in HDFa; assay type: cell-based, human; details: 6 hours, 0.001 mg/mL (COL3A1, COL5A1, COL6A1, COL7A1) or 0.1 mg/mL (COL1A1, COL4A1), compared with linear form (Figure 6A, 6B)
Procedure: (§6) HDFa cells were seeded in duplicate (n=2) in 12-well plates at a concentration of 200.000 cells/well in 106 Medium supplemented with 2% LSGS. Then, cells were incubated at 37 °C in a humidified atmosphere with 5% CO2. Next, cells were treated with cycled peptide B at different non-toxic concentrations for 6 or 24 hours. Untreated cells were used as basal control. Cells were then lysed, and replicates were pooled together for RNA extraction using Qiagen RNeasy Mini kit following manufacturer's instructions. Purified RNAs was then quantified by nanodrop, adjusted in concentration and processed for retrotranscription to cDNA using a commercially available kit (High-Capacity cDNA Reverse Transcription kit - Thermofisher Scientific, USA). Resulting cDNA was used to perform a RTqPCR using Taqman technology, and a panel of probes designed to target different type of collagens and their respective matrix metalloproteinases.
The expression of collagen genes in HDFa cells was measured by qPCR.

MMP3 and MMP1 = assay: qPCR expression of metalloproteases in HDFa; assay type: cell-based, human; details: 24 hours, 0.01 mg/mL, compared with linear form (Figure 6C)
Procedure: as §6
Metalloproteases (MMP) are enzymes responsible of extracellular matrix degradation, also important in skin aging. The expression of MMP genes in HDFa cells was measured by qPCR after 24 hours of treatment with 0.01 mg/mL of peptide B and its linear form.

Collagen I (COL1) = assay: Collagen I immunostaining in HDF treated with conditioned media from peptide-treated keratinocytes; assay type: cell-based, human; details: 4 days of treatment with conditioned medium from peptide-treated keratinocytes (Figure 8)
Procedure: For TGFβ3 gene expression assessment, HEKa cells were seeded in 24-well plate at a density of […] and incubated at 37 °C in a humidified atmosphere with 5% CO2. Next day, cell culture media was replaced by fresh media containing 0.0025 or 0.01 mg/mL of cycled peptide B. In parallel, HDF cells were seeded on culture plates with or without coverslips (for immunofluorescence or qPCR, respectively) and incubated for 24 h.
Conditioned media from HEKa cells after 48 hours of treatment was then transferred to HDF culture plates. Cells were maintained in culture for additional 24h (for qPCR) or for 4 days (for collagen I immunostaining).
For the evaluation of collagen I (COLI) synthesis by immunostaining, HDF cells treated with HEKa conditioned media (as explained above) were washed twice with PBS, fixed with 4% formaldehyde and permeabilized with Triton X-100 0.2%. Next, samples were blocked for 1 hour with PBS/BSA 5%, in order to avoid nonspecific antibody binding. For collagen I staining, samples were incubated for 2 hours with Monoclonal Anti-Collagen, Type I antibody diluted 1:100 in PBS/BSA 1%, at room temperature. […] Images were analyzed using Image J software as mentioned above.

Fold change vs. Basal (FN): 1.58
Compound: CC(C)C[C@@H]1NC(=O)[C@H](C)NC(=O)[C@H](Cc2c[nH]cn2)NC(=O)[C@H](Cc2c[nH]c3ccccc23)NC(=O)[C@H](Cc2ccccc2)NC(=O)[C@H](CCCNC(=N)N)NC1=O [Peptide B, cyclo-Phe-Trp- His- Ala-Leu-Arg]
viability at 24 h ([1]; 0.001 mg/mL peptide): 100%
viability at 24 h ([1]; 0.005 mg/mL peptide): 99.8%
viability at 24 h ([1]; 0.01 mg/mL peptide): 92.9%
viability at 24 h ([1]; 0.05 mg/mL peptide): 91.9%
viability at 24 h ([1]; 0.1 mg/mL peptide): 88.2%
viability at 24 h ([1]; 0.5 mg/mL peptide): 73.7%
viability at 24 h ([2]; 0.001 mg/mL peptide): 102%
viability at 24 h ([2]; 0.005 mg/mL peptide): 103%
viability at 24 h ([2]; 0.01 mg/mL peptide): 107%
viability at 24 h ([2]; 0.05 mg/mL peptide): 91.4%
viability at 24 h ([2]; 0.1 mg/mL peptide): 85.8%
viability at 24 h ([2]; 0.5 mg/mL peptide): 61.8%
Mean normalized expression (FN; normalized to GAPDH): 3.28E-01
expression of collagen genes [3]: improves the induction of collagen-related genes
regulation of MMP3 and MMP1 expression (MMP3 and MMP1): reduces the expression of enzymes involved in collagen degradation
Collagen I (COL1) levels (Collagen I (COL1)): significantly increased
